Source: patent US5622933A, “Multiple branch peptide constructions for use against HIV” (priority 1993, dated 1997)
“And” between values parts separate entries of the source, which are not always exact repeats. Equal values may be shown once. Read-outs that look alike come from different tables or passages of the source. Ends that are not written are not given here.

How the values were obtained:
[1] = test system: HIV-1 (IIIB); type: cell-based; settings: for number of syncytia (HIV-1 induced cell fusion): 24 hours
Description: 50×10^3 8E5 cells chronically infected with a RT-deficient HIV-I (IIIB) isolate, were co-cultivated with 150×10^3 phytohemagglutinin (PHA) stimulated human peripheral blood lymphocytes (PBLs) in the presence of the indicated peptide in 96-well plates. The MBPCs used are described by the peptides attached, and the number thereof, to a core lysine matrix, which is designated HLC. All amino acids used for this experiment were in dextro form.

[2] = test system: HIV-1 (89.6); assay: Infection of and syncytia formation in human primary macrophages; type: cell-based; settings: 5×10^-5 M; 10,000 TCID50
Experimental: MBPCs were also evaluated for their ability to block the infection of human primary macrophages by a highly cytopathic macrophage-tropic isolate, HIV-1 (89.6). Mononuclear cells were isolated from leukophoresis units enriched for monocytes by Ficoll-Hypaque density separation. Macrophages were purified by adherence to plastic in RPMI 1640 supplemented with 10% fetal calf serum and 5% human AB serum. […] 5×10^5 cells were treated for 45 minutes with the indicated MBPC at concentrations of 5×10^-5 M and subsequently exposed to 10,000 TCID50 of the macrophage-tropic isolate HIV (89.6). […] After thorough washing, the cells were fed again with medium and analyzed for HIV-1 p24^gag production and syncytia formation 4 days post-infection.

[3] = test system: 8E5 cells; assay: Toxicity in the cell fusion test (MTT assay or trypan blue exclusion); type: cell-based; settings: 5 × 10^-5 M
[4] = test system: C57/BL6 black mice; assay: Immunogenicity in mice (serum ELISA for anti-MBPC3 antibody); type: in vivo, mouse; settings: coat GPGRAF monomer 10 μg/ml, listed as Mo
Experimental: The injection route was intraperitoneal. The blood samples were collected by sub-orbital eye punction. The blood samples were left for 1 hour at 37° C., then overnight at 4° C., and the supernatants (serum samples) thus obtained were separated from the pellets. Sera were tested by ELISA, looking for specific anti-MBPC3 antibody.
(§1) […] After saturation with 400 μL of casein (5 g/100 ml), different serum dilutions were added for 2 hours at 37° C. The controls were sera from non-immunized rabbits and mice. After rinsing (5×), 50 μl of 1:5000 of peroxidase-labeled swine anti-rabbit IgG or anti-mouse IgG (Dakopatts, Copenhagen, Denmark) were added for 1 hour at 37° C. After further rinsing (5×), 100 μl of ortho-phenylenediamine were added for 30 min in the dark at room temperature. The reaction was stopped by adding 50 μl of 4N sulfuric acid, and optical density (OD) ratios were determined at 492/620 nm.

[5] = test system: New Zealand rabbits; assay: Immunogenicity in rabbits (serum ELISA for anti MBPC.3 antibodies); type: in vivo, rabbit; settings: coat GPGRAF monomer 10 μg/ml
Experimental: […] This procedure was repeated subcutaneously with incomplete Freud's adjuvant on days 30, 60, 90 and 120. Sera were tested by ELISA, looking for specific anti MBPC.3 antibodies. Data presented here is from the last serum samples (120+7 days).
as §1

[6] = test system: HIV-1MN; assay: Syncytia formation blockage (chronically infected cells + uninfected Molt-4 cells); type: cell-based; parameters: key: -: The presence of syncytia is indicated by + signs, allocated in approximate proportion to the quantities counted; The presence of syncytia is indicated by + signs, allocated in approximate proportion to the quantities counted; ++: The presence of syncytia is indicated by + signs, allocated in approximate proportion to the quantities counted; +++: The presence of syncytia is indicated by + signs, allocated in approximate proportion to the quantities counted; ++++: The presence of syncytia is indicated by + signs, allocated in approximate proportion to the quantities counted
Experimental: (§2) CEM or C8166 cells were chronically infected with HIV-1 Lai or HIV-2 Rod, or HIV-1MN, respectively. Infected cells (1×10^4) were incubated for 2 hours with various concentrations of MBPCs in 96-well plates. Uninfected Molt-4 cells (4×10^4) were then added in […]. Syncytia were counted after 18 hours at 37° C.

[7] = test system: HIV-1Lai; assay: as above; type: cell-based; parameters: key: -: The presence of syncytia is indicated by + signs, allocated in approximate proportion to the quantities counted; The presence of syncytia is indicated by + signs, allocated in approximate proportion to the quantities counted; ++: The presence of syncytia is indicated by + signs, allocated in approximate proportion to the quantities counted; +++: The presence of syncytia is indicated by + signs, allocated in approximate proportion to the quantities counted; ++++: The presence of syncytia is indicated by + signs, allocated in approximate proportion to the quantities counted
Experimental: as §2

[8] = test system: HIV-2Rod; assay: as above; type: cell-based; parameters: key: -: The presence of syncytia is indicated by + signs, allocated in approximate proportion to the quantities counted; The presence of syncytia is indicated by + signs, allocated in approximate proportion to the quantities counted; ++: The presence of syncytia is indicated by + signs, allocated in approximate proportion to the quantities counted; +++: The presence of syncytia is indicated by + signs, allocated in approximate proportion to the quantities counted; ++++: The presence of syncytia is indicated by + signs, allocated in approximate proportion to the quantities counted
Experimental: as §2

Question: Which “number of syncytia (HIV-1 induced cell fusion)” value (from here on “number of syncytia”) ([1]; 5 × 10^-6 M) does the source give for [GPG(R)D AF]8 -MLC here?
Answer: - (- indicates the total absence of syncytia in the well)

Question: What about the “number of syncytia” value ([1]; 5 × 10^-7 M) of the same substance?
Answer: +++

Question: And the “inhibition of macrophage infection, in words” value [2]?
Answer: significantly less active than [GPGRAF]8 -MLC

Question: For “[RKSIHKGPGRAFYT]4 -MLC (also: tetrameric multibranched MLC construct)”, which “number of syncytia” value ([1]; 5 × 10^-6 M) is on record?
Answer: - (- indicates the total absence of syncytia in the well)

Question: And the “number of syncytia” value ([1]; 5 × 10^-7 M)?
Answer: +++

Question: What about the Toxicity [3] of the same substance?
Answer: Toxic

Question: How did the “optical density (OD) ratio 492/620 nm (×10^3)” value ([4]; plate 1, mouse serum 10^-2) turn out when “GPGRAF [Mono.3, GPGRAF, reference compound]” was run?
Answer: 1224 and 1135

Question: What about the “optical density (OD) ratio 492/620 nm (×10^3)” value ([4]; plate 1, mouse serum 10^-3) of the same substance?
Answer: 310 and 287

Question: What about the “optical density (OD) ratio 492/620 nm (×10^3)” value ([4]; plate 1, mouse serum 10^-4) of the same substance?
Answer: 104 and 185

Question: What about the “optical density (OD) ratio 492/620 nm (×10^3)” value ([4]; plate 2, mouse serum 10^-2) of the same substance?
Answer: 1539 and 1575

Question: And the “optical density (OD) ratio 492/620 nm (×10^3)” value ([4]; plate 2, mouse serum 10^-3)?
Answer: 342 and 335

Question: What about the “optical density (OD) ratio 492/620 nm (×10^3)” value ([4]; plate 2, mouse serum 10^-4) of the same substance?
Answer: 95 and 126

Question: And the “optical density (OD) ratio 492/620 nm (×10^3)” value ([4]; plate 4, mouse serum 10^-2)?
Answer: 1231 and 1317

Question: And the “optical density (OD) ratio 492/620 nm (×10^3)” value ([4]; plate 4, mouse serum 10^-3)?
Answer: 380 and 386

Question: What about the “optical density (OD) ratio 492/620 nm (×10^3)” value ([4]; plate 4, mouse serum 10^-4) of the same substance?
Answer: 123 and 122

Question: What about the “optical density (OD) ratio 492/620 nm (×10^3)” value ([5]; plate 1, rabbit serum 10^-2) of the same substance?
Answer: 2000

Question: And the “optical density (OD) ratio 492/620 nm (×10^3)” value ([5]; plate 1, rabbit serum 10^-3)?
Answer: 2000

Question: And the “optical density (OD) ratio 492/620 nm (×10^3)” value ([5]; plate 1, rabbit serum 10^-4, listed as Mo)?
Answer: 677 and 725

Question: What about the “optical density (OD) ratio 492/620 nm (×10^3)” value ([5]; plate 2, rabbit serum 10^-2) of the same substance?
Answer: 2000

Question: And the “optical density (OD) ratio 492/620 nm (×10^3)” value ([5]; plate 2, rabbit serum 10^-3, listed as Mo)?
Answer: 2000 and 1909

Question: And the “optical density (OD) ratio 492/620 nm (×10^3)” value ([5]; plate 2, rabbit serum 10^-4, listed as Mo)?
Answer: 588 and 625

Question: And the “optical density (OD) ratio 492/620 nm (×10^3)” value ([5]; plate 4, rabbit serum 10^-2)?
Answer: 811

Question: And the “optical density (OD) ratio 492/620 nm (×10^3)” value ([5]; plate 4, rabbit serum 10^-3, listed as Mo)?
Answer: 245 and 194

Question: Which results are given for [GPGRA]8 -MLC?
Answer: inhibition of syncytia formation / cell fusion, in words [1]: did not inhibit cell fusion; number of syncytia (HIV-1 induced cell fusion) ([1]; 5 × 10^-5 M): +++; number of syncytia (HIV-1 induced cell fusion) ([1]; 5 × 10^-6 M): +++; number of syncytia (HIV-1 induced cell fusion) ([1]; 5 × 10^-7 M): +++

Question: “[Ac-GPGRAF]8 -MLC (also: eight copies on MLC (multibranched lysine core)) [N-terminal acetylation]” was tested. Which “inhibition of syncytia formation / cell fusion, in words” value [1] did it give?
Answer: significant loss of activity

Question: And the “number of syncytia” value ([1]; 5 × 10^-5 M)?
Answer: - (- indicates the total absence of syncytia in the well)

Question: What about the “number of syncytia” value ([1]; 5 × 10^-6 M) of the same substance?
Answer: +++

Question: What about the “number of syncytia” value ([1]; 5 × 10^-7 M) of the same substance?
Answer: +++

Question: How did the “inhibition of syncytia formation / cell fusion, in words” value [1] turn out when “[IGPGRAF]8 -MLC (also: octameric multibranched MLC construct)” was run?
Answer: significant loss of activity

Question: And the “number of syncytia” value ([1]; 5 × 10^-5 M)?
Answer: - (- indicates the total absence of syncytia in the well)

Question: And the “number of syncytia” value ([1]; 5 × 10^-6 M)?
Answer: ±

Question: And the “number of syncytia” value ([1]; 5 × 10^-7 M)?
Answer: +++

Question: For “(IGPGRAF)4 -(K)2 -K-βA-OH (also: four copies on lysine core (K)2-K-βA-OH) [MBPC.4]”, which Syncytia formation ([6]; MBPC Conc. 5 × 10^-6 M) is on record?
Answer: ++++

Question: And the Syncytia formation ([6]; MBPC Conc. 10^-6 M)?
Answer: ++++

Question: What about the Syncytia formation ([6]; MBPC Conc. 10^-7 M) of the same substance?
Answer: +++

Question: What about the Syncytia formation ([7]; MBPC Conc. 5 × 10^-6 M) of the same substance?
Answer: +++

Question: What about the Syncytia formation ([7]; MBPC Conc. 10^-6 M) of the same substance?
Answer: ++++

Question: What about the Syncytia formation ([7]; MBPC Conc. 10^-7 M) of the same substance?
Answer: ++++

Question: What about the Syncytia formation ([8]; MBPC Conc. 5 × 10^-6 M) of the same substance?
Answer: ++++

Question: And the Syncytia formation ([8]; MBPC Conc. 10^-6 M)?
Answer: ++++

Question: What about the Syncytia formation ([8]; MBPC Conc. 10^-7 M) of the same substance?
Answer: ++++

Question: What does the source list for [GPGR]8 -MLC?
Answer: inhibition of syncytia formation / cell fusion, in words [1]: did not inhibit cell fusion; number of syncytia (HIV-1 induced cell fusion) ([1]; 5 × 10^-5 M): +++; number of syncytia (HIV-1 induced cell fusion) ([1]; 5 × 10^-6 M): +++; number of syncytia (HIV-1 induced cell fusion) ([1]; 5 × 10^-7 M): +++

Question: With “RAFVTIGK [RAFVTIGK (SEQ ID NO:6), reference compound]” as the substance, how does the “number of syncytia” value ([1]; 5 × 10^-5 M) read?
Answer: - (- indicates the total absence of syncytia in the well)

Question: What about the “number of syncytia” value ([1]; 5 × 10^-6 M) of the same substance?
Answer: +++

Question: What about the “number of syncytia” value ([1]; 5 × 10^-7 M) of the same substance?
Answer: +++

Question: Which “number of syncytia” value ([1]; 5 × 10^-6 M) does the source give for “[RKSIHTGPGRAFYT]4 -MLC (also: tetrameric multibranched MLC construct)” here?
Answer: - (- indicates the total absence of syncytia in the well)

Question: And the “number of syncytia” value ([1]; 5 × 10^-7 M)?
Answer: +++

Question: What about the Toxicity [3] of the same substance?
Answer: Toxic

Question: What does the source list for [GPGRAF]8 -MLCD?
Answer: number of syncytia (HIV-1 induced cell fusion) ([1]; 5 × 10^-5 M): +++; number of syncytia (HIV-1 induced cell fusion) ([1]; 5 × 10^-6 M): +++; number of syncytia (HIV-1 induced cell fusion) ([1]; 5 × 10^-7 M): +++; inhibition of macrophage infection, in words [2]: significantly less active than [GPGRAF]8 -MLC
